Measured values as given in publication PMC11851430, “Workflow for E3 Ligase Ligand Validation for PROTAC Development” (ACS Chemical Biology, 2025).

What was measured:
AURKBA = target: T1, AURKBA (Homo sapiens, UniProt Q96GD4); assay: DSF assay; assay type: binding; conditions: 20 µM compound
T1 construct: purchased in-house DSF panel (SGC-style construct names; the trailing A/B is a construct suffix)

MAPK13A = target: T2, MAPK13A (Homo sapiens, UniProt O15264); assay: DSF assay; assay type: binding; conditions: 20 µM compound
T2 construct: purchased in-house DSF panel (SGC-style construct names; the trailing A/B is a construct suffix)
T2 sequence (O15264 1-365): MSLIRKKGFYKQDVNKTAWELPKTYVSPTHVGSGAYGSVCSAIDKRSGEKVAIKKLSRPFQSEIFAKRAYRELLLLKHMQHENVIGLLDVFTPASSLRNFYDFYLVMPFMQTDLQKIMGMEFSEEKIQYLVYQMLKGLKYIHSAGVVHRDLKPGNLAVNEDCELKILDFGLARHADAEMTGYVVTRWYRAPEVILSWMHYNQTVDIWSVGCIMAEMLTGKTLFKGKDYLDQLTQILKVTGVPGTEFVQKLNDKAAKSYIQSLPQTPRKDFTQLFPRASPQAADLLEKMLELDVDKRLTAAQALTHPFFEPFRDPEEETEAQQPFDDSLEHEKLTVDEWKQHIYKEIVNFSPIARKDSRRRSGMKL

STK17A = target: T3, STK17A (Homo sapiens, UniProt Q9UEE5); assay: DSF assay; assay type: binding; conditions: 20 µM compound
T3 construct: purchased in-house DSF panel (SGC-style construct names; the trailing A/B is a construct suffix)
T3 sequence (Q9UEE5 61-321): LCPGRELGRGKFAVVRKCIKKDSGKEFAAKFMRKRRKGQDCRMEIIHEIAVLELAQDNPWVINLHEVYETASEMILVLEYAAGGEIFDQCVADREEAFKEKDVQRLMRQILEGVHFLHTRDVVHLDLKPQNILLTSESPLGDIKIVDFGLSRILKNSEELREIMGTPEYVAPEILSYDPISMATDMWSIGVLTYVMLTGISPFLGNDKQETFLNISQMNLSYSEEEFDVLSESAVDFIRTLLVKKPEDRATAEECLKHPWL

MAPK6 = target: T4, MAPK6 (Homo sapiens, UniProt Q16659); assay: DSF assay; assay type: binding; conditions: 20 µM compound
T4 construct: purchased in-house DSF panel (SGC-style construct names; the trailing A/B is a construct suffix)
T4 sequence (Q16659 9-327): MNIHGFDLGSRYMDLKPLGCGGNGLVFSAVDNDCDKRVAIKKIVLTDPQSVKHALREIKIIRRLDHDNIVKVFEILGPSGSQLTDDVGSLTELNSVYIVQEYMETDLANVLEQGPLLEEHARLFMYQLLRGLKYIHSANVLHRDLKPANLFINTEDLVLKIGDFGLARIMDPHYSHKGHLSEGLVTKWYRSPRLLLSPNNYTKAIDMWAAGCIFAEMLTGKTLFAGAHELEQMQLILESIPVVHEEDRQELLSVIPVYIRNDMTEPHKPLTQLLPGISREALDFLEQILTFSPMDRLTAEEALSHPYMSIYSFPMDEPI

MELKA = target: T5, MELKA (Homo sapiens, UniProt Q14680); assay: DSF assay; assay type: binding; conditions: 20 µM compound
T5 construct: purchased in-house DSF panel (SGC-style construct names; the trailing A/B is a construct suffix)
T5 sequence (Q14680 1-340): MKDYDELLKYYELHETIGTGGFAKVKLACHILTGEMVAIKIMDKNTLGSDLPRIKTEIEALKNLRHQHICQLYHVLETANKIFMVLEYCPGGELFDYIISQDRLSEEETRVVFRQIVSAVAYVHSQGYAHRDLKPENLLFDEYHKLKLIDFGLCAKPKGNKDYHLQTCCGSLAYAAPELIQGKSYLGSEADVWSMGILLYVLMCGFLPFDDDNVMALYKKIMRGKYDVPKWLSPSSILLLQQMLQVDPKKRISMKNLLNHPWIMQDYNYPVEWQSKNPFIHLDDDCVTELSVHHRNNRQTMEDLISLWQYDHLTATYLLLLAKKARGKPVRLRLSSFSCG

[1] = test system: kinase protein levels in Jurkat cells; assay: TMT-labeled quantitative proteomics; assay type: cell-based, human; conditions: for kinase degradation / AURKA degradation in proteomic experiments: Jurkat cells, 1 μM, 6 h; for AURKA degradation in proteomic experiments: cutoff log2(fold change) ≥ 0.60; for log2FC (compound/DMSO): Jurkat
Method: cultured in RPMI (Thermo: 11875093) supplemented as mentioned above. Cells were seeded in 6 well plates (Greiner: 657160) at a cell density of 1·10 6 cells/well and left at 37 °C and 5% […]
50 µl of SDS Lysis Buffer (2% SDS, 50 mM TRIS pH 8.5, 10 mM TCEP, 40 mM CAA) was added to each sample. Cells were transferred into low binding reaction tubes (Eppendorf:
0030108116) and samples were boiled for 15 minutes at 95 °C and sonicated for 2 minutes.
Methanol/Chloroform Precipitation. 200 µl of methanol and 50 µl of chloroform were added to each sample reaction tube and mixed via vortex. 150 µl of milliQ-H2O were added and samples were vortexed further. Samples were centrifuged for 5 minutes at 15000 g and the aqueous layer above the interphase was removed. 150 µl of methanol was added, samples were vortexed and centrifuged for 10 minutes at 15000 g to precipitate the pellet. The aforementioned wash procedure was repeated twice before transferring the pellet to a new low bind reaction tube in which it was allowed to dry for 5 minutes.
Dissolving the Protein Pellet and Protein Quantification. 50 µl of digestion buffer (8 M Urea, 50 mM TRIS pH 8) was added to each sample before vortexing and shaking at 750 rpm at room temperature for 10 minutes to solubilize the pellet. Protein quantification via PierceTM BCA Protein Assay Kit (Thermo: 23225) was carried out according to manufacturer’s protocol.
Protein Digestion. Samples were diluted 1:2 with 50 mM TRIS pH 8.5 to reach a final concentration of 4 M Urea. Lys-C (Promega: VA1170) was added at a 1:100 enzyme/substrate ratio. Samples were agitated at 550 rpm and 37 °C for 3 h. Samples were further diluted with 50 mM TRIS pH 8.5 to a final concentration of 1 M Urea and Trypsin (Promega: V5280) was added at a 1:100 enzyme/substrate ratio. Samples were agitated overnight at 550 rpm and 37 °C. The digestion was stopped the following day via addition of TFA to a final concentration […]
Solid Phase Extraction via C18 Cartridges. Sep-Pak C18 Cartridges (Waters: WAT054955) were used for solid phase extraction of digested peptides. For preconditioning of C18 cartridges, 1 mL of methanol was added to each column followed by 1 mL of solution B (0.1% formic acid, 80% acetonitrile) and 1 mL of solution A (0.1% formic acid, ddH2O) twice. Samples […]
were loaded to their respective columns and once samples had passed, columns were washed twice with solution A to remove unwanted components from the loading step. Elution of samples was carried out via introduction of 40% and 60% acetonitrile steps. Samples were dried and snap frozen in liquid nitrogen.
TMT-Labeling. Desalted peptides were dried and resuspended in TMT-labeling buffer (200 mM EPPS pH 8.2, 20% acetonitrile). 10 μg of peptides per condition were subjected to TMT labeling with 1:2.5 peptide TMT ratio (w/w) for 1 h at room temperature. The labeling reaction was quenched by addition of hydroxylamine to a final concentration of 0.5% and incubation at room temperature for 15 minutes. Successful TMT labeling was verified by mixing equimolar ratios of peptides and subjecting the mix to single shot LC-MS/MS analysis. For high pH reversed phase fractionation on a Dionex analytical HPLC, 50 µg of pooled and purified TMT labelled samples were resuspended in 10 mM ammonium-bicarbonate (ABC), 5% acetonitrile, […]
particle size; Phenomenex) using a multistep gradient from 100% solvent A (5% acetonitrile, 10 mM ABC in water) to 60% solvent B (90% acetonitrile, 10 mM ABC in water) over 70 minutes. Eluting peptides were collected every 45 seconds into a total of 96 fractions, which were cross-concatenated into 24 fractions and dried in a vacuum concentrator and resuspended in 3% acetonitrile with 0.1% TFA for LC-MS analysis.
Mass spectrometry data acquisition. Tryptic peptides were analyzed on an Orbitrap Lumos coupled to an easy nLC 1200 (ThermoFisher Scientific) using a 35 cm long, 75 µm ID fused-

VHL = VHL (Homo sapiens, UniProt P40337); assay: cell-based; design: full-length, NanoLuc fusion (Promega N2741); species or system HEK293T; NanoBRET VHL tracer displacement in permeabilized cells, NanoLuc-VHL fusion; conditions: permeabilized cells; read-out: VHL permeabilized (IC50±sd)/µM
Chain of VHL (P40337 whole entry, the tested form may be a part): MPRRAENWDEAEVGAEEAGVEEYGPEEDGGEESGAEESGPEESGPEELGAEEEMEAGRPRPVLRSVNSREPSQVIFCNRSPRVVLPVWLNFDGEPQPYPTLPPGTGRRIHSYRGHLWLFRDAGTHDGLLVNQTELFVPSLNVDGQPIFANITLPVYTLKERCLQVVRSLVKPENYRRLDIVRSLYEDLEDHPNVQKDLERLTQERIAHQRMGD

[2] = protein TRBV12-3;TRBV12-4, 1 µM, set1.2
[3] = protein UQCRHL;UQCRH, 1µM, set6
[4] = protein hCG_2014768;TMA7, 1µM, set6

T1 sequence (Q96GD4 whole entry): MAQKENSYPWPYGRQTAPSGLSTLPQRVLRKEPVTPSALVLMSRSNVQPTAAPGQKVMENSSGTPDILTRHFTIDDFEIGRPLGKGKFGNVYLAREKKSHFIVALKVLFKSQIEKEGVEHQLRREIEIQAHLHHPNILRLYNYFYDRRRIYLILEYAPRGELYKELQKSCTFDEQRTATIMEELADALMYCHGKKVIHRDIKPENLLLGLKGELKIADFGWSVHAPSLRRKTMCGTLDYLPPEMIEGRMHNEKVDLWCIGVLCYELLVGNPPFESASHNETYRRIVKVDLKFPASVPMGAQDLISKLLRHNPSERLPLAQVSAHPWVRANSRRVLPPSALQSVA

## CC(C)(C)OC(=O)NCCOCCOCCOCCOCCC(=O)N1CCN(c2cc(Nc3cc(C4CC4)[nH]n3)nc(Nc3ccc(CC#N)cc3)n2)CC1 [4-L]
AURKBA
  ΔTm at 20 µM: 12.7 °C
MAPK13A
  ΔTm at 20 µM: 3.4 °C
STK17A
  ΔTm at 20 µM: 8.17 °C
MAPK6
  ΔTm at 20 µM: -0.18 °C
MELKA
  ΔTm at 20 µM: 10.1 °C

## Cc1ncsc1-c1ccc(CNC(=O)[C@@H]2C[C@@H](O)CN2C(=O)[C@@H](NC(=O)CCOCCOCCOCCN2CCN(c3cc(Nc4cc(C5CC5)[nH]n4)nc(Nc4ccc(CC#N)cc4)n3)CC2)C(C)(C)C)cc1 [4-a]
[1]
  kinase degradation: more kinases were degraded
  AURKA degradation in proteomic experiments: degradation levels close to the set cutoff
[1]; protein NUDT4, 1 µM, set1.2
  log2FC (compound/DMSO): -0.1286
[1]; protein PIGBOS1, 1 µM, set1.2
  log2FC (compound/DMSO): -0.1403
[1]; protein TRAV8-2, 1 µM, set1.2
  log2FC (compound/DMSO): 0.1127
[1]; [2]
  log2FC (compound/DMSO): 0.03022
VHL
  IC50: 1.13 ± 0.132 µM

## Cc1ncsc1-c1ccc(CNC(=O)[C@@H]2C[C@H](O)CN2C(=O)[C@@H](NC(=O)CCOCCOCCOCCN2CCN(c3cc(Nc4cc(C5CC5)[nH]n4)nc(Nc4ccc(CC#N)cc4)n3)CC2)C(C)(C)C)cc1 [4-a^neg]
[1]
  kinase degradation: inactive
[1]; protein NUDT4, 1µM, set6
  log2FC (compound/DMSO): 0.1377
[1]; protein TRAV8-2, 1µM, set6
  log2FC (compound/DMSO): -0.04256
[1]; [3]
  log2FC (compound/DMSO): 0.1443
[1]; [4]
  log2FC (compound/DMSO): -0.0883

## CC(C)(C)OC(=O)NCCCOCCOCCOCCCNC(=O)c1cc(Nc2cc(C3CC3)[nH]n2)nc(Nc2ccc(CC#N)cc2)n1 [5-L]
AURKBA
  ΔTm at 20 µM: 2.62 °C
MAPK13A
  ΔTm at 20 µM: 3.98 °C
STK17A
  ΔTm at 20 µM: 5.46 °C
MAPK6
  ΔTm at 20 µM: 0.51 °C
MELKA
  ΔTm at 20 µM: 8.44 °C

## Cc1ncsc1-c1ccc(CNC(=O)[C@@H]2C[C@@H](O)CN2C(=O)[C@@H](NC(=O)CCOCCOCCNC(=O)c2cc(Nc3cc(C4CC4)[nH]n3)nc(Nc3ccc(CC#N)cc3)n2)C(C)(C)C)cc1 [5-a]
[1]; protein NUDT4, 1 µM, set1.2
  log2FC (compound/DMSO): -0.04256
[1]; protein PIGBOS1, 1 µM, set1.2
  log2FC (compound/DMSO): -0.1976
[1]; protein TRAV8-2, 1 µM, set1.2
  log2FC (compound/DMSO): 0.04739
[1]; [2]
  log2FC (compound/DMSO): 0.03953
VHL
  IC50: 1.22 ± 0.665 µM

## CC(=O)N[C@H](C(=O)N1C[C@H](O)C[C@H]1C(=O)NCc1ccc(-c2scnc2C)cc1OCCOCCOCCOCCNC(=O)c1cc(Nc2cc(C3CC3)[nH]n2)nc(Nc2ccc(CC#N)cc2)n1)C(C)(C)C [5-b]
VHL
  IC50: 0.972 ± 0.094 µM

## Cc1ncsc1-c1ccc(CNC(=O)[C@@H]2C[C@@H](O)CN2C(=O)[C@@H](NC(=O)CCOCCOCCOCCOCCN2CCN(c3ccc(Nc4ncc(Cl)c(Nc5ccccc5C(N)=O)n4)cc3)CC2)C(C)(C)C)cc1 [6-b]
[1]
  kinase degradation: more kinases were degraded
  AURKA degradation in proteomic experiments: degradation levels close to the set cutoff
[1]; protein NUDT4, 1 µM, set1.2
  log2FC (compound/DMSO): 0.1389
[1]; protein PIGBOS1, 1 µM, set1.2
  log2FC (compound/DMSO): -0.2513
[1]; protein TRAV8-2, 1 µM, set1.2
  log2FC (compound/DMSO): -0.01025
[1]; [2]
  log2FC (compound/DMSO): 0.04941
VHL
  IC50: 1.41 ± 0.083 µM

## Cc1ncsc1-c1ccc(CNC(=O)[C@@H]2C[C@H](O)CN2C(=O)[C@@H](NC(=O)CCOCCOCCOCCOCCN2CCN(c3ccc(Nc4ncc(Cl)c(Nc5ccccc5C(N)=O)n4)cc3)CC2)C(C)(C)C)cc1 [6-b^neg]
[1]
  kinase degradation: inactive
[1]; protein NUDT4, 1µM, set6
  log2FC (compound/DMSO): -0.02087
[1]; protein TRAV8-2, 1µM, set6
  log2FC (compound/DMSO): 0.09325
[1]; [3]
  log2FC (compound/DMSO): 0.1465
[1]; [4]
  log2FC (compound/DMSO): -0.2041

## Cc1ncsc1-c1ccc(CNC(=O)[C@@H]2C[C@@H](O)CN2C(=O)[C@@H](NC(=O)CCCCCCN2CCN(c3ccc(Nc4ncc(Cl)c(Nc5ccccc5C(N)=O)n4)cc3)CC2)C(C)(C)C)cc1 [6-d]
[1]; protein NUDT4, 1µM, set6
  log2FC (compound/DMSO): 0.05822
[1]; protein TRAV8-2, 1µM, set6
  log2FC (compound/DMSO): -0.03607
[1]; [3]
  log2FC (compound/DMSO): -0.2976
[1]; [4]
  log2FC (compound/DMSO): -0.5377
VHL
  IC50: 5.83 ± 1.43 µM

## CC(=O)N[C@H](C(=O)N1C[C@H](O)C[C@H]1C(=O)NCc1ccc(-c2scnc2C)cc1OCCOCCOCCOCCOCCC(=O)N1CCN(c2ccc(Nc3ncc(Cl)c(Nc4ccccc4C(N)=O)n3)cc2)CC1)C(C)(C)C [6-e]
VHL
  IC50: 1.4 ± 0.174 µM

## CCOC(=O)c1cc(Nc2cc(C3CC3)[nH]n2)nc(Nc2ccc(CC#N)cc2)n1 [compound 5]
AURKBA
  ΔTm at 20 µM: 8.24 °C
MAPK13A
  ΔTm at 20 µM: 3.76 °C
STK17A
  ΔTm at 20 µM: 6.97 °C
MAPK6
  ΔTm at 20 µM: -0.45 °C
MELKA
  ΔTm at 20 µM: 9.78 °C
